This note sets out measurements from patent publication US20260183297A1, “SELECTION OF PATIENTS FOR THE TREATMENT OF FADS1-MEDIATED DISEASES OR DISORDERS USING FADS-1 INHIBITORS” (AMGEN INC., priority 2022, published 2026).

The target of this experiment is T1, FADS1 (Mus musculus, UniProt Q920L1).
T1 construct: Liver from ^13C5-DGLA dosed DIO mice was collected for pharmacodynamic (PD) analysis; from tissue; host or cells: living DIO C57Bl/6 mice; 13C5-DGLA to 13C5-AA conversion read in liver (A4) or blood plasma (A5)
T1 sequence (Q920L1 1-447): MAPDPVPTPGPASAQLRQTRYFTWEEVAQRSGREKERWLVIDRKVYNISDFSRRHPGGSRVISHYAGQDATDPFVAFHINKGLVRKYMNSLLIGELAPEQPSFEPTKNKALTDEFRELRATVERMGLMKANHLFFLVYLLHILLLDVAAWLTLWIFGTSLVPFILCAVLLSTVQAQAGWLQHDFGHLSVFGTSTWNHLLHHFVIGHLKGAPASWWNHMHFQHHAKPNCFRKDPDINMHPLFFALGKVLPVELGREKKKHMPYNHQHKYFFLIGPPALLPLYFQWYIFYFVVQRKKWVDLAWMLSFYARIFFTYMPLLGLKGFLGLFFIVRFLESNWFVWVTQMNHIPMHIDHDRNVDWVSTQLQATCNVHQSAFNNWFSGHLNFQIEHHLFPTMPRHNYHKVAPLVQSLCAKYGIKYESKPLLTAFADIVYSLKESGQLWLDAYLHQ
Description: In vivo FADS1 activity measurement using blood plasma (13C5-DGLA to 13C5-AA conversion). The settings on record: DIO mice, 24 hours after dosing. As for the experimental part:
FADS1 activity in the presence of Compounds B-E was also measured using blood plasma (in addition to using the liver). The above procedures were perforned to measure the in vivo activity of FADS1 using the liver. The following general procedures were used to measure FADS1 activity using blood plasma. Diet-induced obese (DIO) mice that were on 12 weeks of high fat diet were used to determine the pharmacokinetic (PK) and pharmacodynamic (PD) properties of test compounds. To determine the target coverage at 24 hours after dosing with a test compound (e.g., Compounds B-E, shown below), mice were IP dosed with 0.1 ml solution of ^13C5-DGLA (2 mM in 18.42 mM Na2CO3 buffer). Necropsy were performed at 30 minutes post ^13C5-DGLA dosing. EDTA Plasma was collected for PK and PD analysis.
For PD analysis, 50 μl of plasma or standards (pooled untreated mouse plasma with ^13C5-DGLA and ^13C5-AA added at concentration of 4.57 nM to 10 uM) were mixed with 10 μl of 90% methanol and 10 μl of 50 μg/mL of ALA-D14 as an internal standard (100 μM alpha-linolenic acid-d14 (ALA-d14, Cayman Chemical)) in a 96 well plate. 490 μl of chloroform:methanol (2:1) were added to each well. Plates were plated on a shaker for 5 min prior to adding 66.5 μl water. The plates were shaken for another 5 minutes, followed by centrifugation at 2000 RPM for 5 minutes. The bottom organic layer was transferred to a clean 96 well plate. 333 ul of chloroform:methanol (2:1) were added to the to the remaining liquid phase in the original plate. After 5 min of shaking, the plate was centrifuged at 2000 RPM for 5 minutes. The bottom layer was collected and combined with the first bottom layer. The combined layers were evaporated to dryness under a constant stream of nitrogen gas. After the plate has been dried, 100 μl of 2N NaOH was added to the mixture for subsequent saponification at 65° C. for 1 hour. The samples were then cooled to room temperature and the mixture was then acidified with 50 μl of formic acid followed by two consecutive chloroform:methanol (2:1) extractions. 500 μl of Chloroform:methanol (2:1) was added and the mixture thoroughly mixed by shaking. The plate was then centrifuged at 2,000 rpm for 5 min. The bottom chloroform phase was transferred to a new 2 mL 96 well plate and the remaining aqueous layer was extracted with another 250 μl of chloroform:methanol (2:1). The organic extracts were combined, and the solvent was evaporated to dryness by placing the plate under nitrogen. Extracts were then dissolved in 200 μl of acetonitrile/methanol (1:1). The plate was placed on a shaker for 30 minutes to ensure thorough mixing and dissolution of the extracted fatty acids. The plate was then centrifuged at 2000 RPM for 5 minutes. 80 μl of the samples were transferred to a new 96 well polypropylene plate for analysis on a LC-MS/MS for the following analytes: ^13C5-DGLA, ^13C5-AA, with ALA-d14 as the internal standard. Briefly describing the LC-MS/MS method: 20 μl of sample was injected onto a Poroshell 120 EC-C18 3.0×50 mm, 1.9 μm id column. Mobile phases were 80% acetonitrile containing 5 mM ammonium acetate for mobile phase A and 99.5% acetonitrile containing 5 mM ammonium acetate for mobile phase B. The LC gradient was a 3 min long method at a flow rate of 0.4 mL/minute consisting of 45% B at 0 to 0.5 min, followed by a 45% B to 100% B from 0.5 to 2.0 min; the system was then maintained at 100% B from 2.0 min to 2.5 min and returned to 45% B at 2.6 min and maintained until end of the method. The analyte peak areas were quantified by using the SCIEX Analyst software. To determine the degree of FADS1 inhibition, the in vivo FADS1 activity, POC, percent of inhibition, and in vivo IC50 values are calculated as described above for liver FADS1 activity measurement.

[1] abbreviates: mouse, single oral dose 10 mg/kg.
Where [2] appears, read: mouse, single oral dose 30 mg/kg.

`N#Cc1ccn2c(=O)c(-c3cnn(CC(F)(F)C(F)(F)F)c3)c(C(F)(F)F)nc2c1` [Compound C]: the “Plasma Avg % Conversion” value by setting is: (single oral dose 3 mg/kg) 10.1%; (single oral dose 10 mg/kg) 4.3%; (single oral dose 30 mg/kg) 1.7%. The inhibition – broadly, the drop in the measured response relative to a control, in per cent – at 3 mg/kg (mouse, single oral dose 3 mg/kg) stood at 83.3%. The same compound gave an inhibition at 10 mg/kg under setting [1] of 92.8%. Under setting [2], testing at 30 mg/kg gave an inhibition of 97.1%.

`COc1ccn2c(=O)c(-c3cnn(CC(F)(F)C(F)(F)F)c3)c(C(F)(F)F)nc2n1` [Compound B]: the “Plasma Avg % Conversion” value is, setting by setting: (single oral dose 10 mg/kg) 2.9%; (single oral dose 30 mg/kg) 2.2%; (single oral dose 50 mg/kg) 1.9%. Under setting [1], this compound registered an inhibition at 10 mg/kg of 95.2%. Under setting [2], this compound returned an inhibition at 30 mg/kg of 96.3%. Also, for the setting “mouse, single oral dose 50 mg/kg”, the inhibition at 50 mg/kg is 96.9%.
